Patent publication US8101550B2, “Anthranilic acid diamide derivative with hetero-aromatic and hetero-cyclic substituents” (Bayer Cropscience AG, priority 2006, dated 2012)

Assay: log P determination by HPLC on reverse-phase column (EEC Directive 79/831 Annex V.A8)
Format: physicochemical
Details: HPLC on reverse-phase column
Procedure: The log P values stated in the foregoing tables and preparation examples are determined in accordance with EEC Directive 79/831 Annex V.A8 by means of HPLC (High Performance Liquid Chromatography) on a reverse-phase column (C 18). Temperature: 43° C.
The determination by LC-MS in the acidic range takes place at a pH of 2.7 using 0.1% aqueous formic acid and acetonitrile (containing 0.1% formic acid) as eluents; linear gradient from 10% acetonitrile to 95% acetonitrile.
Calibration is with unbranched alkan-2-ones (having 3 to 16 carbon atoms) of known log P value (log P values determined from the retention times by linear interpolation between two successive alkanones).
In the case of `CNC(=O)c1cc(Cl)cc(C)c1NC(=O)c1cc(Cn2nnn(-c3ccc(Cl)cc3)c2=O)nn1-c1ncccc1Cl` [I-1-38], the logP was 3.28.
For `CNC(=O)c1cc(Cl)cc(C)c1NC(=O)c1cc(Cn2nc(C(F)(F)F)nc2C(F)(F)F)nn1-c1c(Cl)cccc1Cl` [I-1-41], the logP was 4.13.
`CNC(=O)c1cc(Cl)cc(C)c1NC(=O)c1cc(Cn2cc(C(F)(F)F)cn2)nn1-c1ncccc1Cl` [I-1-42] showed a logP of 2.76.
In the case of `Cc1cc(Cl)cc(C(=O)NC(C)C)c1NC(=O)c1cc(Cn2cc(C(F)(F)F)cn2)nn1-c1ncccc1Cl` [I-1-43], the logP was 3.20.
Molecule `CNC(=O)c1cc(Cl)cc(C)c1NC(=O)c1cc(Cn2ccc(C(F)(F)F)n2)nn1-c1ncccc1Cl` [I-1-44] has a logP of 2.92.
With `CNC(=O)c1cc(Cl)cc(C)c1NC(=O)c1cc(Cn2cc(I)cn2)nn1-c1ncccc1Cl` [I-1-45] the logP was 2.67.
Work on `Cc1cc(Cl)cc(C(=O)NC2CC2)c1NC(=O)c1cc(Cn2cc(C(F)(F)C(F)(F)F)c(C(F)(F)C(F)(F)F)n2)nn1-c1ncccc1Cl` [I-1-46] yielded a logP of 4.58.
Molecule `Cc1cc(Cl)cc(C(=O)NCC#N)c1NC(=O)c1cc(Cn2cc(C(F)(F)C(F)(F)F)c(C(F)(F)C(F)(F)F)n2)nn1-c1ncccc1Cl` [I-1-47] has a logP of 4.31.
For `Cc1cc(Cl)cc(C(N)=O)c1NC(=O)c1cc(Cn2cc(C(F)(F)C(F)(F)F)c(C(F)(F)C(F)(F)F)n2)nn1-c1ncccc1Cl` [I-1-48], the logP was 4.15.
Molecule `Cc1cc(Cl)cc(C(=O)NCC#N)c1NC(=O)c1cc(Cn2nc(C(F)(F)F)nc2C(F)(F)F)nn1-c1ncccc1Cl` [I-1-49] has a logP of 3.97.
In the case of `Cc1cc(Cl)cc(C(N)=O)c1NC(=O)c1cc(Cn2nc(C(F)(F)F)nc2C(F)(F)F)nn1-c1ncccc1Cl` [I-1-50], the logP was 3.88.
`Cc1cc(Cl)cc(C(=O)NC(C)C)c1NC(=O)c1cc(Cn2nnn(-c3c(C)cccc3Cl)c2=O)nn1-c1ncccc1Cl` [I-1-51] gave a logP of 3.52.
For `Cc1cc(Br)cc(C(=O)NC2CC2)c1NC(=O)c1cc(Cn2cc(C(F)(F)C(F)(F)F)c(C(F)(F)C(F)(F)F)n2)nn1-c1ncccc1Cl` [I-1-52], the logP was 4.59.
`Cc1cc(Br)cc(C(N)=O)c1NC(=O)c1cc(Cn2cc(C(F)(F)C(F)(F)F)c(C(F)(F)C(F)(F)F)n2)nn1-c1ncccc1Cl` [I-1-53] gave a logP of 4.17.
`Cc1cc(Cl)cc(C(=O)NC2CC2)c1NC(=O)c1cc(Cn2nc(C(F)(F)F)nc2C(F)(F)F)nn1-c1ncccc1Cl` [I-1-54] showed a logP of 3.61.
With `Cc1cc(Cl)cc(C(=O)NCC#N)c1NC(=O)c1cc(Cn2nc(C(F)(F)F)nc2C(F)(F)F)nn1-c1ncccc1Cl` [I-1-55] the logP was 3.40.
Molecule `Cc1cc(Br)cc(C(=O)NCC#N)c1NC(=O)c1cc(Cn2nc(C(F)(F)F)nc2C(F)(F)F)nn1-c1ncccc1Cl` [I-1-56] has a logP of 3.44.
`Cc1cc(Br)cc(C(=O)NC2CC2)c1NC(=O)c1cc(Cn2nc(C(F)(F)F)nc2C(F)(F)F)nn1-c1ncccc1Cl` [I-1-57] gave a logP of 3.67.
Molecule `CNC(=O)c1cc(Br)cc(C)c1NC(=O)c1cc(Cn2nc(C(F)(F)F)cc2C(F)(F)F)nn1-c1ncccc1Cl` [I-1-58] has a logP of 3.76.
Work on `Cc1cc(Br)cc(C(=O)NCC#N)c1NC(=O)c1cc(Cn2nc(C(F)(F)F)cc2C(F)(F)F)nn1-c1ncccc1Cl` [I-1-59] yielded a logP of 3.65.
In the case of `Cc1cc(Br)cc(C(=O)NC2CC2)c1NC(=O)c1cc(Cn2nc(C(F)(F)F)cc2C(F)(F)F)nn1-c1ncccc1Cl` [I-1-60], the logP was 3.91.
Molecule `Cc1cc(Br)cc(C(N)=O)c1NC(=O)c1cc(Cn2nc(C(F)(F)F)cc2C(F)(F)F)nn1-c1ncccc1Cl` [I-1-61] has a logP of 3.53.
In the case of `CNC(=O)c1cc(Cl)cc(C)c1NC(=O)c1cc(Cn2cc(I)c(C(F)(F)F)n2)nn1-c1ncccc1Cl` [I-1-62], the logP was 3.41.
In the case of `Cc1cc(Cl)cc(C(=O)NC(C)C)c1NC(=O)c1cc(Cn2cc(I)c(C(F)(F)F)n2)nn1-c1ncccc1Cl` [I-1-63], the logP was 3.85.
`CNC(=O)c1cc(Cl)cc(C)c1NC(=O)c1cc(Cn2cc(C(F)(F)C(F)(F)F)cn2)nn1-c1ncccc1Cl` [I-1-64] showed a logP of 3.21.
Work on `Cc1cc(Cl)cc(C(=O)NC(C)C)c1NC(=O)c1cc(Cn2cc(C(F)(F)C(F)(F)F)cn2)nn1-c1ncccc1Cl` [I-1-65] yielded a logP of 3.67.
`CNC(=O)c1cc(Cl)cc(C)c1NC(=O)c1cc(Cn2cc(Br)c(C(F)(F)F)n2)nn1-c1ncccc1Cl` [I-1-66] gave a logP of 3.38.
With `Cc1cc(Cl)cc(C(=O)NC(C)C)c1NC(=O)c1cc(Cn2cc(Br)c(C(F)(F)F)n2)nn1-c1ncccc1Cl` [I-1-67] the logP was 3.78.
Molecule `CNC(=O)c1cc(Br)cc(C)c1NC(=O)c1cc(Cn2cc(Br)c(C(F)(F)F)n2)nn1-c1ncccc1Cl` [I-1-68] has a logP of 3.46.
`Cc1cc(Br)cc(C(=O)NC(C)C)c1NC(=O)c1cc(Cn2cc(Br)c(C(F)(F)F)n2)nn1-c1ncccc1Cl` [I-1-69] showed a logP of 3.92.
Molecule `CNC(=O)c1cc(Br)cc(C)c1NC(=O)c1cc(Cn2cc(Cl)c(C(F)(F)C(F)(F)F)n2)nn1-c1ncccc1Cl` [I-1-70] has a logP of 3.94.
`Cc1cc(Br)cc(C(=O)NC(C)C)c1NC(=O)c1cc(Cn2cc(Cl)c(C(F)(F)C(F)(F)F)n2)nn1-c1ncccc1Cl` [I-1-71] gave a logP of 4.40.
`Cc1cc(Br)cc(C(=O)NC2CC2)c1NC(=O)c1cc(Cn2cc(Cl)c(C(F)(F)C(F)(F)F)n2)nn1-c1ncccc1Cl` [I-1-72] showed a logP of 4.14.
For `Cc1cc(Br)cc(C(=O)NCC#N)c1NC(=O)c1cc(Cn2cc(Cl)c(C(F)(F)C(F)(F)F)n2)nn1-c1ncccc1Cl` [I-1-73], the logP was 3.87.
Work on `Cc1cc(Br)cc(C(N)=O)c1NC(=O)c1cc(Cn2cc(Cl)c(C(F)(F)C(F)(F)F)n2)nn1-c1ncccc1Cl` [I-1-74] yielded a logP of 3.68.
`CSC[C@H](C)NC(=O)c1cc(Cl)cc(C)c1NC(=O)c1cc(Cn2nc(C(F)(F)F)nc2C(F)(F)F)nn1-c1ncccc1Cl` [I-1-75] gave a logP of 4.04.
`CCNC(=O)OC[C@H](C)NC(=O)c1cc(Cl)cc(C)c1NC(=O)c1cc(Cn2nc(C(F)(F)F)nc2C(F)(F)F)nn1-c1ncccc1Cl` [I-1-77] showed a logP of 3.58.
`CNC(=O)OC[C@H](C)NC(=O)c1cc(Cl)cc(C)c1NC(=O)c1cc(Cn2nc(C(F)(F)F)nc2C(F)(F)F)nn1-c1ncccc1Cl` [I-1-78] gave a logP of 3.36.
`Cc1cc(Cl)cc(C(=O)NCC#N)c1NC(=O)c1cc(Cn2nc(C(F)(F)F)nc2C(F)(F)F)nn1-c1ncccc1Cl` [I-1-79] gave a logP of 3.62.
With `CNC(=O)c1cc(Br)cc(C)c1NC(=O)c1cc(Cn2ccc(C(F)(F)F)n2)nn1-c1ncccc1Cl` [I-1-80] the logP was 2.99.
`Cc1cc(Br)cc(C(=O)NC(C)C)c1NC(=O)c1cc(Cn2ccc(C(F)(F)F)n2)nn1-c1ncccc1Cl` [I-1-81] showed a logP of 3.46.
`Cc1cc(Br)cc(C(=O)NC2CC2)c1NC(=O)c1cc(Cn2ccc(C(F)(F)F)n2)nn1-c1ncccc1Cl` [I-1-82] showed a logP of 3.18.
Work on `Cc1cc(Br)cc(C(N)=O)c1NC(=O)c1cc(Cn2ccc(C(F)(F)F)n2)nn1-c1ncccc1Cl` [I-1-83] yielded a logP of 2.75.
`CSC[C@H](C)NC(=O)c1cccc(C)c1NC(=O)c1cc(Cn2nc(C(F)(F)F)nc2C(F)(F)F)nn1-c1ncccc1Cl` [I-1-84] showed a logP of 3.62.
`Cc1cc(Br)cc(C(=O)NCC#N)c1NC(=O)c1cc(Cn2ccc(C(F)(F)F)n2)nn1-c1ncccc1Cl` [I-1-85] gave a logP of 2.98.
`CNC(=O)c1cc(Cl)cc(C)c1NC(=O)c1cc(Cn2nc(C(F)(F)C(F)(F)F)nc2C(F)(F)F)nn1-c1ncccc1Cl` [I-1-86] gave a logP of 3.78.
With `Cc1cccc(C(=O)N[C@@H](C)CS(C)(=O)=O)c1NC(=O)c1cc(Cn2nc(C(F)(F)F)nc2C(F)(F)F)nn1-c1ncccc1Cl` [I-1-87] the logP was 2.92.
`CNC(=O)c1cc(Cl)cc(C)c1NC(=O)c1cc(Cn2nnn(-c3ccc(C(F)(F)F)cc3)c2=O)nn1-c1ncccc1Cl` [I-1-88] gave a logP of 3.61.
Work on `Cc1cc(Cl)cc(C(=O)NC(C)C)c1NC(=O)c1cc(Cn2nnn(-c3ccc(C(F)(F)F)cc3)c2=O)nn1-c1ncccc1Cl` [I-1-89] yielded a logP of 3.96.
Molecule `CNC(=O)c1cc(Cl)cc(C)c1NC(=O)c1cc(Cn2nnn(-c3cc(C(F)(F)F)cc(C(F)(F)F)c3)c2=O)nn1-c1ncccc1Cl` [I-1-90] has a logP of 4.08.
`Cc1cc(Cl)cc(C(=O)NC(C)C)c1NC(=O)c1cc(Cn2nnn(-c3cc(C(F)(F)F)cc(C(F)(F)F)c3)c2=O)nn1-c1ncccc1Cl` [I-1-91] gave a logP of 4.51.
For `Cc1cccc(C(=O)NC(C)C[S+](C)[O-])c1NC(=O)c1cc(Cn2nc(C(F)(F)F)nc2C(F)(F)F)nn1-c1ncccc1Cl` (stereo not shown) [I-1-92], the logP was 2.65.

Same assay, conditions: reverse-phase C18 HPLC column; HPLC, reverse-phase column (C 18), 43° C., acidic range pH 2.7; read-out: logP
Molecule `Cc1cc(Cl)cc2c(=O)oc(-c3cc(Cn4nc(C(F)(F)F)cc4C(F)(F)F)nn3-c3ncccc3Cl)nc12` [Example 2, 2-[5-(3,5-Bistrifluoromethylpyrazol-1-ylmethyl)-2-(3-chloropyridin-2-yl)-2H-pyrazol-3-yl]-6-chloro-8-methylbenzo[d][1,3]oxazin-4-one] has a chromatographic logP of 5.11.
`O=C(O)c1cc(Cn2nc(C(F)(F)F)cc2C(F)(F)F)nn1-c1ncccc1Cl` [Example 3, 5-(3,5-Bistrifluoromethylpyrazol-1-ylmethyl)-2-(3-chloropyridin-2-yl)-2H-pyrazole-3-carboxylic acid] showed a chromatographic logP of 2.86.
`COC(=O)c1cc(Cn2nc(C(F)(F)F)cc2C(F)(F)F)nn1-c1ncccc1Cl` [Example 4, Methyl 5-(3,5-bistrifluoromethylpyrazol-1-ylmethyl)-2-(3-chloropyridin-2-yl)-2H-pyrazole-3-carboxylate] gave a chromatographic logP of 3.71.
Molecule `COC(=O)c1cc(COS(C)(=O)=O)nn1-c1ncccc1Cl` [Example 5, Methyl 2-(3-chloropyridin-2-yl)-5-methanesulphonyloxymethyl-2H-pyrazole-3-carboxylate] has a chromatographic logP of 1.55.
Molecule `COC(=O)c1cc(CO)nn1-c1ncccc1Cl` [Example 6, Methyl 2-(3-chloropyridin-2-yl)-5-hydroxymethyl-2H-pyrazole-3-carboxylate] has a chromatographic logP of 1.26.
With `COC(=O)c1cc(C(=O)OC)n(-c2ncccc2Cl)n1` [Example 7, Dimethyl 1-(3-chloropyridin-2-yl)-1H-pyrazole-3,5-dicarboxylate] the chromatographic logP was 1.97.
